Experimental data published in the supplement of paper PMC10307832.

Columns and labels:
Assay in all cases: relative viability (nuclei count vs DMSO), 5 days (fraction); higher = more cells survive
A549 = system: A549
In short: (§1)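 Lung cancer cell lines, seeded in 1536-well plates, were treated the following day by pin tool with a single drug or with five library-drug doses (not always all listed) in √10 steps on top of a fixed anchor-drug dose. Cells were fixed and nuclei stained in one step after 5 days, and nuclei were counted. Relative viability is the nuclei count for treated wells divided by that for vehicle wells, reported as medians of duplicate plates.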

Calu-6 = system: Calu-6
In short: as §1

EBC-1 = system: EBC-1
In short: as §1

HCC-78 = system: HCC-78
In short: as §1

IA-LM = system: IA-LM
In short: as §1

NCI-H1299 = system: NCI-H1299
In short: as §1

NCI-H1703 = system: NCI-H1703
In short: as §1

NCI-H2009 = system: NCI-H2009
In short: as §1

NCI-H358 = system: NCI-H358
In short: as §1

NCI-H460 = system: NCI-H460
In short: as §1

NCI-H661 = system: NCI-H661
In short: as §1

Nc1ccn([C@@H]2O[C@H](CO)[C@@H](O)[C@@H]2O)c(=O)n1 [Cytarabine] + CS(=O)(=O)N1CCN(Cc2cc3nc(-c4cccc5[nH]ncc45)nc(N4CCOCC4)c3s2)CC1 [Pictilisib] (partner 1 µM)
relative viability (A549; first compound 0.005 µM): 0.506
relative viability (A549; first compound 0.05 µM): 0.539
relative viability (A549; first compound 0.1581 µM): 0.0667
relative viability (A549; first compound 0.5 µM): 0.039
relative viability (Calu-6; first compound 0.005 µM): 0.741
relative viability (Calu-6; first compound 0.01581 µM): 0.618
relative viability (Calu-6; first compound 0.05 µM): 0.775
relative viability (Calu-6; first compound 0.1581 µM): 0.371
relative viability (Calu-6; first compound 0.5 µM): 0.203
relative viability (EBC-1; first compound 0.005 µM): 0.37
relative viability (EBC-1; first compound 0.01581 µM): 0.29
relative viability (EBC-1; first compound 0.05 µM): 0.239
relative viability (EBC-1; first compound 0.1581 µM): 0.215
relative viability (EBC-1; first compound 0.5 µM): 0.193
relative viability (HCC-78; first compound 0.005 µM): 0.234
relative viability (HCC-78; first compound 0.01581 µM): 0.196
relative viability (HCC-78; first compound 0.05 µM): 0.139
relative viability (HCC-78; first compound 0.1581 µM): 0.141
relative viability (HCC-78; first compound 0.5 µM): 0.128
relative viability (IA-LM; first compound 0.005 µM): 0.296
relative viability (IA-LM; first compound 0.01581 µM): 0.336
relative viability (IA-LM; first compound 0.05 µM): 0.338
relative viability (IA-LM; first compound 0.1581 µM): 0.154
relative viability (IA-LM; first compound 0.5 µM): 0.0939
relative viability (NCI-H1299; first compound 0.005 µM): 0.819
relative viability (NCI-H1299; first compound 0.01581 µM): 0.839
relative viability (NCI-H1299; first compound 0.05 µM): 0.959
relative viability (NCI-H1299; first compound 0.1581 µM): 0.656
relative viability (NCI-H1299; first compound 0.5 µM): 0.645
relative viability (NCI-H1703; first compound 0.005 µM): 0.263
relative viability (NCI-H1703; first compound 0.01581 µM): 0.182
relative viability (NCI-H1703; first compound 0.05 µM): 0.194
relative viability (NCI-H1703; first compound 0.1581 µM): 0.149
relative viability (NCI-H1703; first compound 0.5 µM): 0.158
relative viability (NCI-H2009; first compound 0.005 µM): 0.907
relative viability (NCI-H2009; first compound 0.01581 µM): 0.678
relative viability (NCI-H2009; first compound 0.05 µM): 0.81
relative viability (NCI-H2009; first compound 0.1581 µM): 0.487
relative viability (NCI-H2009; first compound 0.5 µM): 0.224
relative viability (NCI-H358; first compound 0.005 µM): 0.318
relative viability (NCI-H358; first compound 0.01581 µM): 0.288
relative viability (NCI-H358; first compound 0.05 µM): 0.298
relative viability (NCI-H358; first compound 0.1581 µM): 0.179
relative viability (NCI-H358; first compound 0.5 µM): 0.155
relative viability (NCI-H460; first compound 0.005 µM): 0.328
relative viability (NCI-H460; first compound 0.01581 µM): 0.322
relative viability (NCI-H460; first compound 0.05 µM): 0.226
relative viability (NCI-H460; first compound 0.1581 µM): 0.106
relative viability (NCI-H460; first compound 0.5 µM): 0.0854
relative viability (NCI-H661; first compound 0.005 µM): 0.411
relative viability (NCI-H661; first compound 0.01581 µM): 0.323
relative viability (NCI-H661; first compound 0.05 µM): 0.217
relative viability (NCI-H661; first compound 0.1581 µM): 0.284
relative viability (NCI-H661; first compound 0.5 µM): 0.222

CC(=O)O[C@@]12CO[C@@H]1C[C@H](O)[C@@]1(C)C(=O)[C@H](O)C3=C(C)[C@@H](OC(=O)[C@H](O)[C@@H](NC(=O)OC(C)(C)C)c4ccccc4)C[C@@](O)([C@@H](OC(=O)c4ccccc4)[C@H]21)C3(C)C [Docetaxel] + C[C@]1(O)C[C@@H](c2nc(-c3ccc4ccc(-c5ccccc5)nc4c3)c3c(N)nccn32)C1 [Linsitinib] (partner 1 µM)
relative viability (A549; first compound 0.0002 µM): 0.578
relative viability (A549; first compound 0.000632 µM): 0.372
relative viability (A549; first compound 0.002 µM): 0.0857
relative viability (A549; first compound 0.006325 µM): 0.0667
relative viability (A549; first compound 0.02 µM): 0.036
relative viability (Calu-6; first compound 0.0002 µM): 0.819
relative viability (Calu-6; first compound 0.000632 µM): 0.968
relative viability (Calu-6; first compound 0.002 µM): 0.332
relative viability (Calu-6; first compound 0.006325 µM): 0.142
relative viability (Calu-6; first compound 0.02 µM): 0.0881
relative viability (EBC-1; first compound 0.0002 µM): 0.776
relative viability (EBC-1; first compound 0.000632 µM): 0.872
relative viability (EBC-1; first compound 0.002 µM): 0.204
relative viability (EBC-1; first compound 0.006325 µM): 0.271
relative viability (EBC-1; first compound 0.02 µM): 0.129
relative viability (HCC-78; first compound 0.0002 µM): 0.469
relative viability (HCC-78; first compound 0.000632 µM): 0.429
relative viability (HCC-78; first compound 0.002 µM): 0.339
relative viability (HCC-78; first compound 0.006325 µM): 0.284
relative viability (HCC-78; first compound 0.02 µM): 0.222
relative viability (IA-LM; first compound 0.0002 µM): 0.351
relative viability (IA-LM; first compound 0.000632 µM): 0.449
relative viability (IA-LM; first compound 0.002 µM): 0.112
relative viability (IA-LM; first compound 0.006325 µM): 0.0528
relative viability (IA-LM; first compound 0.02 µM): 0.042
relative viability (NCI-H1299; first compound 0.0002 µM): 0.905
relative viability (NCI-H1299; first compound 0.000632 µM): 0.98
relative viability (NCI-H1299; first compound 0.002 µM): 0.787
relative viability (NCI-H1299; first compound 0.006325 µM): 0.432
relative viability (NCI-H1299; first compound 0.02 µM): 0.255
relative viability (NCI-H1703; first compound 0.0002 µM): 0.741
relative viability (NCI-H1703; first compound 0.000632 µM): 1.15
relative viability (NCI-H1703; first compound 0.002 µM): 0.258
relative viability (NCI-H1703; first compound 0.006325 µM): 0.116
relative viability (NCI-H1703; first compound 0.02 µM): 0.101
relative viability (NCI-H2009; first compound 0.0002 µM): 1.15
relative viability (NCI-H2009; first compound 0.000632 µM): 1.18
relative viability (NCI-H2009; first compound 0.002 µM): 0.77
relative viability (NCI-H2009; first compound 0.006325 µM): 0.522
relative viability (NCI-H2009; first compound 0.02 µM): 0.187
relative viability (NCI-H358; first compound 0.0002 µM): 0.63
relative viability (NCI-H358; first compound 0.000632 µM): 0.371
relative viability (NCI-H358; first compound 0.002 µM): 0.206
relative viability (NCI-H358; first compound 0.02 µM): 0.136
relative viability (NCI-H460; first compound 0.0002 µM): 0.715
relative viability (NCI-H460; first compound 0.000632 µM): 0.153
relative viability (NCI-H460; first compound 0.002 µM): 0.0174
relative viability (NCI-H460; first compound 0.006325 µM): 0.0113
relative viability (NCI-H460; first compound 0.02 µM): 0.0074
relative viability (NCI-H661; first compound 0.0002 µM): 0.593
relative viability (NCI-H661; first compound 0.000632 µM): 0.683
relative viability (NCI-H661; first compound 0.002 µM): 0.45
relative viability (NCI-H661; first compound 0.006325 µM): 0.449
relative viability (NCI-H661; first compound 0.02 µM): 0.261
